Source: publication PMC10364322, “Evaluation of chronic drug-induced electrophysiological and cytotoxic effects using human-induced pluripotent stem cell-derived cardiomyocytes (hiPSC-CMs)” (Frontiers in Pharmacology, 2023)
Read-outs that look alike come from different tables or passages of the source.

System: hiPSC-CMs (iCell-Cardiomyocytes^2)
Procedure, shortened: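 Spontaneous field potentials and impedance recorded by MEA at 37°C, 5% CO2 in hiPSC-CM monolayers (50 K/well, fibronectin-coated), 5-min baseline before compound; final DMSO 0.1%. Values are percent change from baseline, mean ± SD, compared with DMSO by Wilcoxon-Mann Whitney, interpreted against DMSO tolerance intervals.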

CCN(CC)CCNC(=O)c1c(C)[nH]c(/C=C2\C(=O)Nc3ccc(F)cc32)c1C [Sunitinib]
BR (beating rate), % change from baseline (0.03 µM, 2h): 0±2% | FPD (field-potential duration), % change from baseline (0.03 µM, 2h): 5.5±1.5% | FPDc (field-potential duration corrected by beat-rate), % change from baseline (0.03 µM, 2h): 5.3±1.7% | BR (beating rate), % change from baseline (0.03 µM, 24h): -2±3% | FPD (field-potential duration), % change from baseline (0.03 µM, 24h): 11±4.2% | FPDc (field-potential duration corrected by beat-rate), % change from baseline (0.03 µM, 24h): 10.1±3.1% | BR (beating rate), % change from baseline (0.03 µM, 48h): -13±2% | FPD (field-potential duration), % change from baseline (0.03 µM, 48h): 20.5±2.7% | FPDc (field-potential duration corrected by beat-rate), % change from baseline (0.03 µM, 48h): 14.9±1.9 % | BR (beating rate), % change from baseline (0.03 µM, 72h): -10±2% | FPD (field-potential duration), % change from baseline (0.03 µM, 72h): 19.2±2% | FPDc (field-potential duration corrected by beat-rate), % change from baseline (0.03 µM, 72h): 15±1.8% | BR (beating rate), % change from baseline (0.03 µM, 96h): -18±1% | FPD (field-potential duration), % change from baseline (0.03 µM, 96h): 27.4±1.8% | FPDc (field-potential duration corrected by beat-rate), % change from baseline (0.03 µM, 96h): 19.3±1.7% | BR (beating rate), % change from baseline (0.1 µM, 2h): -5±1% | FPD (field-potential duration), % change from baseline (0.1 µM, 2h): 12.2±1.2 % | FPDc (field-potential duration corrected by beat-rate), % change from baseline (0.1 µM, 2h): 10.3±1 % | BR (beating rate), % change from baseline (0.1 µM, 24h): -8±4% | FPD (field-potential duration), % change from baseline (0.1 µM, 24h): 25.6±6.7 % | FPDc (field-potential duration corrected by beat-rate), % change from baseline (0.1 µM, 24h): 21.9±5 % | BR (beating rate), % change from baseline (0.1 µM, 48h): -19±2 % | FPD (field-potential duration), % change from baseline (0.1 µM, 48h): 35.8±4.6 % | FPDc (field-potential duration corrected by beat-rate), % change from baseline (0.1 µM, 48h): 26.3±3.6 % | BR (beating rate), % change from baseline (0.1 µM, 72h): -17±2 % | FPD (field-potential duration), % change from baseline (0.1 µM, 72h): 36.3±3.3 % | FPDc (field-potential duration corrected by beat-rate), % change from baseline (0.1 µM, 72h): 28.2±2.6 % | BR (beating rate), % change from baseline (0.1 µM, 96h): -24±1% | FPD (field-potential duration), % change from baseline (0.1 µM, 96h): 49±7.7 % | FPDc (field-potential duration corrected by beat-rate), % change from baseline (0.1 µM, 96h): 36.1±6.4 % | time point from which EAD-like events occurred (0.3 µM): 24 h | BR (beating rate), % change from baseline (0.3 µM, 2h): -15±2 % | FPD (field-potential duration), % change from baseline (0.3 µM, 2h): 32.5±1.7 % | FPDc (field-potential duration corrected by beat-rate), % change from baseline (0.3 µM, 2h): 25.4±1.4 % | BR (beating rate), % change from baseline (0.3 µM, 24h): -29±5 % | FPD (field-potential duration), % change from baseline (0.3 µM, 24h): 103.1±24.2 % | FPDc (field-potential duration corrected by beat-rate), % change from baseline (0.3 µM, 24h): 80.7±18.4 % | BR (beating rate), % change from baseline (0.3 µM, 48h): -39±4 % | FPD (field-potential duration), % change from baseline (0.3 µM, 48h): 120.5±24.7 % | FPDc (field-potential duration corrected by beat-rate), % change from baseline (0.3 µM, 48h): 87.2±17.5 % | BR (beating rate), % change from baseline (0.3 µM, 72h): -38±1 % | FPD (field-potential duration), % change from baseline (0.3 µM, 72h): 135.9±4.7 % | FPDc (field-potential duration corrected by beat-rate), % change from baseline (0.3 µM, 72h): 101±3.5 % | BR (beating rate), % change from baseline (0.3 µM, 96h): -44±2 % | FPD (field-potential duration), % change from baseline (0.3 µM, 96h): 152.4±12.3 % | FPDc (field-potential duration corrected by beat-rate), % change from baseline (0.3 µM, 96h): 108.1±8 % | BR (beating rate), % change from baseline (1 µM, 2h): -49±4 % | FPD (field-potential duration), % change from baseline (1 µM, 2h): 182.8±8.5 % | FPDc (field-potential duration corrected by beat-rate), % change from baseline (1 µM, 2h): 128.9±4.9 % | BR (beating rate), % change from baseline (1 µM, 24h): -67±3 % | BR (beating rate), % change from baseline (1 µM, 48h): -68±4 % | BR (beating rate), % change from baseline (1 µM, 72h): -70±0 %
